Data: patent publication US20210347709A1, “RADIOFLUORINATED GPC3-BINDING PEPTIDES FOR PET IMAGING OF HEPATOCELLULAR CARCINOMA” (University of Southern California, priority 2020, published 2021)
Read-outs that look alike come from different tables or passages of the source.

Assays:
[1] = MicroPET/CT imaging and biodistribution, McA-RH7777 tumor model; assay type: in vivo, nude mice; details: both sexes, BALB/c nude, mouse, iv, 5.55 MBq, total radioactivity; for tissue to tissue ratio at 0.5 h / tissue to tissue ratio at 1 h / tissue to tissue ratio at 2 h: McA-RH7777 (GPC3−) tumor bearing mice; for tissue to tissue ratio at 0.5 h / tissue uptake at 0.5 h: 30 min; for tissue to tissue ratio at 1 h / tissue uptake at 1 h: 60 min; for tissue uptake at 0.5 h / tissue uptake at 1 h / tissue uptake at 2 h: McA-RH7777 (GPC3−) tumor model, PET; for tissue uptake at 2 h / tissue to tissue ratio at 2 h: 120 min
Protocol: (§1) MicroPET/CT Imaging and Biodistribution. MicroPET/CT scans were carried out using a Siemens Inveon PET/CT scanner (Siemens, Germany). Tumor-bearing mice (n=3/group) were intravenously injected with 5.55 MBq of Al[^18F]F-GP2076 or Al[^18F]F-GP2633 under isoflurane anesthesia. A ten-minute static PET scan for each animal was acquired at 30, 60, and 120 min after the injection. 3-Dimensional ordered subset expectation maximization (3D-OSEM) algorithm was used for the PET reconstruction, and CT was applied for attenuation correction. Detailed procedures for the microPET/CT imaging and biodistribution are provided in ESM.
(§2) All animal experiments were conducted according to the guideline of the Nanfang Hospital Animal Ethics Committee at the Southern Medical University. Male or female BALB/c nude mice (about 4-6 weeks old) were obtained from the Laboratory Animal Center at Southern Medical University. The HepG2 and McA-RH7777 HCC xenografts were established by subcutaneous injection of 1×10^6 tumor cells into the left shoulder of nude mice. The animals were used for in vivo studies when the tumors reached a size of 0.5-1 cm in diameter (4-6 weeks after inoculation).
(§3) Inveon Research Workplace (IRW) 3.0 software (Siemens, Germany) was used to measure the regions of interest (ROIs) determined by superimposing the ellipsoid volume of interest (VOI) on the target tissues. The radioactivity concentrations were measured by the mean pixel intensity within each VOI and converted to dose/ml using a calibration constant. Assuming the tissue density of 1 g/ml, the ROI was then converted to dose per gram and normalized as the percent injected dose per gram (% ID/g). Tumor-to-nontarget uptake ratios, including tumor-to-muscle (T/M), tumor-to-liver (T/L), and tumor-to-kidneys (T/K) ratios, were calculated by dividing the radioactivity uptake in tumor by that in the corresponding normal tissue or organ.

[2] = tested on: GPC3-negative McA-RH7777 tumor; assay: as above; assay type: in vivo, nude mice; details: for Tumor-to-muscle (T/M) uptake ratio: McA-RH7777 (GPC3−) tumor bearing mice; for Kidneys uptake / Liver uptake / Tumor uptake: McA-RH7777 (GPC3−) tumor model, PET; for Tumor uptake: decay-corrected
Protocol: as §1, §2, §3

[3] = Measurement of lipophilicity (Log P), 1-octanol/PBS partition; assay type: physicochemical; details: 1-octanol / PBS pH 7.4, mean ± SD, n = 4
Protocol: Measurement of Lipophilicity (Log P). Approximately 185 kBq of Al[^18F]F-GP2076 or Al[^18F]F-GP2633 in 0.5 ml of phosphate-buffered saline (PBS) (pH 7.4) was mixed with 0.5 ml of 1-octanol. The mixture was vigorously shaken for 1 min, and then centrifuged at 12,000 rpm for 5 min to partition the organic and aqueous layers. Aliquots of 0.2 ml each layer were taken and the radioactivity was determined by gamma counting (GC-1200, USTC Chuangxin Co. Ltd. Zonkia Branch, China). The distribution coefficient P was calculated as the ratio of radioactivity in the organic phase to that in the aqueous phase. The experiment was carried out in quadruplicate.

[4] = In vivo metabolic stability in HepG2 tumor-bearing mice; details: 1 h after intravenous injection
Protocol: In Vivo Metabolic Stability. HepG2 tumor-bearing mice (n=3/group) were intravenously injected with 5.55 MBq of Al[^18F]F-GP2076 or Al[^18F]F-GP2633. At 1 h after the injection, the mice were euthanized, and the HepG2 tumor, blood, liver, kidneys, and urine samples were collected. Briefly, the blood sample was immediately centrifuged for 5 min at 12,000 rpm. The HepG2 tumor, liver, and kidneys were homogenized and then centrifuged for 5 min at 12,000 rpm. The supernatant from each sample was passed through an ultrafiltration tube (Millipore, USA) and then centrifuged for 10 min at 12,000 rpm. The urine sample was diluted with 100 μl of PBS. The filtrate from each sample was injected into analytic HPLC. The HPLC eluents were collected with a fraction collector (one fraction/30 sec), and the radioactivity of each fraction was measured by gamma counting.

[5] = McA-RH7777 tumor / muscle, read-out: Tumor-to-muscle (T/M) uptake ratio
[6] = intestine, read-out: Intestinal uptake
[7] = decay-corrected, read-out: Tumor uptake
[8] = kidneys, read-out: Kidneys uptake
[9] = muscle, read-out: Muscle uptake
[10] = tumor / kidneys, read-out: Tumor-to-kidneys (T/K) uptake ratio
[11] = tumor / liver, read-out: Tumor-to-liver (T/L) uptake ratio

- tissue to tissue ratio at 0.5 h [1, 5]: 3.87 ± 1.97
- tissue to tissue ratio at 1 h [1, 5]: 6.2 ± 2.67
- tissue uptake at 0.5 h ([1]; bone, read-out: Bone uptake): 1.04 %ID/g
- tissue uptake at 1 h ([1]; bone, read-out: Bone uptake): 0.8 %ID/g
- tissue uptake at 2 h ([1]; bone, read-out: Bone uptake): 0.56 %ID/g
- tissue uptake at 0.5 h ([1]; brain, read-out: Brain uptake): 0.78 %ID/g
- tissue uptake at 1 h ([1]; brain, read-out: Brain uptake): 0.31 %ID/g
- tissue uptake at 2 h ([1]; brain, read-out: Brain uptake): 0.22 %ID/g
- tissue uptake at 0.5 h ([1]; heart, read-out: Heart uptake): 1.4 %ID/g
- tissue uptake at 1 h ([1]; heart, read-out: Heart uptake): 1 %ID/g
- tissue uptake at 2 h ([1]; heart, read-out: Heart uptake): 0.47 %ID/g
- tissue uptake at 0.5 h [1, 6]: 1.43 %ID/g
- tissue uptake at 1 h [1, 6]: 1.03 %ID/g
- tissue uptake at 2 h [1, 6]: 0.65 %ID/g
- tissue uptake at 0.5 h [1, 7]: 1.75 %ID/g
- tissue uptake at 1 h [1, 7]: 1.64 %ID/g
- tissue uptake at 2 h [1, 7]: 0.66 %ID/g
- tissue uptake at 0.5 h [1, 8]: 37.5 %ID/g
- tissue uptake at 1 h [1, 8]: 35.4 %ID/g
- tissue uptake at 2 h [1, 8]: 25.7 %ID/g
- tissue uptake at 0.5 h ([1]; liver, read-out: Liver uptake): 1.52 %ID/g
- tissue uptake at 1 h ([1]; liver, read-out: Liver uptake): 1.33 %ID/g
- tissue uptake at 2 h ([1]; liver, read-out: Liver uptake): 0.88 %ID/g
- tissue uptake at 0.5 h ([1]; lung, read-out: Lung uptake): 0.93 %ID/g
- tissue uptake at 1 h ([1]; lung, read-out: Lung uptake): 0.74 %ID/g
- tissue uptake at 2 h ([1]; lung, read-out: Lung uptake): 0.49 %ID/g
- tissue uptake at 0.5 h [1, 9]: 0.53 %ID/g
- tissue uptake at 1 h [1, 9]: 0.31 %ID/g
- tissue uptake at 2 h [1, 9]: 0.2 %ID/g
- tissue to tissue ratio at 0.5 h [1, 10]: 0.05 ± 0.004
- tissue to tissue ratio at 1 h [1, 10]: 0.05 ± 0.002
- tissue to tissue ratio at 2 h [1, 10]: 0.03 ± 0.004
- tissue to tissue ratio at 0.5 h [1, 11]: 1.15 ± 0.09
- tissue to tissue ratio at 1 h [1, 11]: 1.23 ± 0.05
- tissue to tissue ratio at 2 h [1, 11]: 0.78 ± 0.16
- tissue to tissue ratio at 2 h ([1]; tumor / muscle, read-out: Tumor-to-muscle (T/M) uptake ratio): 5.5 ± 3.65
- Tumor-to-muscle (T/M) uptake ratio ([2]; 30 min): 3.87±1.97
- Tumor-to-muscle (T/M) uptake ratio ([2]; 60 min): 6.20±2.67
- Kidneys uptake ([2]; 30 min): 37.47 ± 2.57 % ID/g
- Liver uptake ([2]; 30 min): 1.52 ± 0.11 % ID/g
- Tumor uptake ([2]; 30 min): 1.75±0.05 % ID/g
- Kidneys uptake ([2]; 60 min): 35.40 ± 0.92 % ID/g
- Liver uptake ([2]; 60 min): 1.33 ± 0.06 % ID/g
- Tumor uptake ([2]; 60 min): 1.64±0.03 % ID/g
- Kidneys uptake ([2]; 120 min): 25.70 ± 3.35 % ID/g
- Liver uptake ([2]; 120 min): 0.88 ± 0.20 % ID/g
- Tumor uptake ([2]; 120 min): 0.66±0.06 % ID/g
- logP [3]: -2.42 ± 0.09
- percentage of parent F-18 labeled peptide in HepG2 tumor [4]: 93.01±2.98%
- percentage of parent F-18 labeled peptide in blood [4]: 93.57±1.38%
- percentage of parent F-18 labeled peptide in kidneys [4]: 7.70±2.56%
- percentage of parent F-18 labeled peptide in liver [4]: 92.95±2.77%
- percentage of parent F-18 labeled peptide in urine [4]: No parent
Structure (SMILES): CC(C)C[C@H](NC(=O)[C@H](CCCNC(=N)N)NC(=O)[C@H](CC(N)=O)NC(=O)[C@H](CC(=O)O)NC(=O)[C@H](CCCNC(=N)N)NC(=O)CNC(=O)CNC(=O)CNC(=S)Nc1ccc(CC2CN(CC(=O)O)CCN(CC(=O)O)CCN2CC(=O)O)cc1)C(=O)N[C@@H](CC(N)=O)C(=O)N[C@H](C(=O)NCC(=O)NCC(=O)N[C@H](C(=O)N[C@@H](Cc1ccc(O)cc1)C(=O)N[C@@H](Cc1ccccc1)C(=O)N[C@@H](CC(C)C)C(=O)N[C@H](C(=O)N[C@H](C(=O)N[C@@H](CCCNC(=N)N)C(=O)N[C@@H](CCC(N)=O)C(=O)O)[C@@H](C)O)[C@@H](C)O)[C@@H](C)O)C(C)C (single isomer, unassigned) [Al[^18F]F-GP2633]
